# Measured values from PMC10426190 (Breast Cancer Research : BCR, 2023).
# Tested on: E2-induced (ER target) genes in MCF7
# Assay: Gene expression analysis by RNA-sequencing in MCF7 with E2 stimulation
# Assay type: cell-based, human
# Conditions: 24 h
# Method: MCF7 were cultured in hormone deprivation media (with 10% charcoal-stripped FBS) for at least 3 days before assay. Trypsinized cells were seeded in a 12-well plate, stimulated with 1 nM β-estradiol (E2), and treated with/without 1 μM compounds for 24 h. Total RNA was extracted using the TRIzol reagent according to the manufacturer’s protocol. RNA purity and quantification were evaluated using the NanoDrop 2000 spectrophotometer (Thermo Scientific, USA). RNA integrity was assessed using the Agilent 2100 Bioanalyzer (Agilent Technologies, Santa Clara, CA, USA). Then the libraries were constructed using TruSeq Stranded mRNA LT Sample Prep Kit (Illumina, San Diego, CA, USA) according to the manufacturer’s instructions. The transcriptome sequencing and analysis were conducted by OE Biotech Co., Ltd. (Shanghai, China). The libraries were sequenced on an Illumina HiSeq X Ten platform and 150 bp paired-end reads were generated. […] Raw data (raw reads) of FASTq format were firstly processed using Trimmomatic and the low-quality reads were removed to obtain the clean reads. […] The clean reads were mapped to the human genome (GRCh38) using HISAT2 [27]. FPKM [28] of each gene was calculated using Cufflinks, and the read counts of each gene were obtained by HTSeqcount. Differential expression analysis was performed using the DESeq (2012) R package.
# MCF7 with hormone-deprived pre-treatment were administrated ER ligands or not present with 1 nM E2 stimulation for 24 h incubation in a 12-well plate. Total mRNA was isolated from treated cells and sequenced on an Illumina HiSeq X Ten platform. FPKM of each gene was calculated using Cufflinks and Differential expression genes analysis by using the DESeq (2012) R package. […] T47D EFM-19 and HCC1500 cells were grown in RPMI media supplemented with 10% charcoal-stripped FBS for 14 days and then treated with ER antagonist (1 μM) or DMSO in the presence E2 (1nM) stimulation for 24 h before RNA isolation and gene expression analysis as described in methods. […] The uteruses were harvested 24 h after the final doses and stained by toluidine blue. Endometrial height was assessed from the basement membrane to the luminal border (scale bar in green lines: 200 μm), Arrows indicate the uterine epithelium (e).
smiles,measurement,setting,value
CC/C(=C(\c1ccc(O)cc1)c1ccc(OCCN(C)C)cc1)c1ccccc1 [4-OH-tamoxifen],"percentage of E2-induced genes suppressed, Relative to 1 nM E2 Down%","MCF7, 1 nM E2 + 1 μM compound",59.1%
same,"percentage of genes upregulated, Relative to 1 nM E2 Up%","MCF7, 1 nM E2 + 1 μM compound, foldchange > twofold",5.8%
same,ACTG2 expression,"MCF7, 1 nM E2 ± 1 μM compound",2.33 FPKM
same,ADCY1 expression,"MCF7, 1 nM E2 ± 1 μM compound",19.17 FPKM
same,AGR3 expression,"MCF7, 1 nM E2 ± 1 μM compound",25.86 FPKM
same,AMZ1 expression,"MCF7, 1 nM E2 ± 1 μM compound",3.21 FPKM
same,ANLN expression,"MCF7, 1 nM E2 ± 1 μM compound",22.77 FPKM
same,ARHGAP36 expression,"MCF7, 1 nM E2 ± 1 μM compound",1.42 FPKM
same,ASCL1 expression,"MCF7, 1 nM E2 ± 1 μM compound",2.50 FPKM
same,ASF1B expression,"MCF7, 1 nM E2 ± 1 μM compound",33.57 FPKM
same,ASMTL-2 expression,"MCF7, 1 nM E2 ± 1 μM compound",3.33 FPKM
same,ATAD2 expression,"MCF7, 1 nM E2 ± 1 μM compound",29.15 FPKM
same,ATRNL1 expression,"MCF7, 1 nM E2 ± 1 μM compound",0.29 FPKM
same,AURKB expression,"MCF7, 1 nM E2 ± 1 μM compound",18.53 FPKM
same,BIRC5 expression,"MCF7, 1 nM E2 ± 1 μM compound",26.74 FPKM
same,BLM expression,"MCF7, 1 nM E2 ± 1 μM compound",3.14 FPKM
same,BMPER expression,"MCF7, 1 nM E2 ± 1 μM compound",0.18 FPKM
same,BRCA1 expression,"MCF7, 1 nM E2 ± 1 μM compound",3.58 FPKM
same,BRCA2 expression,"MCF7, 1 nM E2 ± 1 μM compound",2.51 FPKM
same,BRIP1 expression,"MCF7, 1 nM E2 ± 1 μM compound",22.65 FPKM
same,BUB1B expression,"MCF7, 1 nM E2 ± 1 μM compound",9.15 FPKM
same,C1orf226 expression,"MCF7, 1 nM E2 ± 1 μM compound",5.19 FPKM
same,C5AR2 expression,"MCF7, 1 nM E2 ± 1 μM compound",2.33 FPKM
same,CA2 expression,"MCF7, 1 nM E2 ± 1 μM compound",157.09 FPKM
same,CA12 expression,"MCF7, 1 nM E2 ± 1 μM compound",46.02 FPKM
same,CALCR expression,"MCF7, 1 nM E2 ± 1 μM compound",4.03 FPKM
same,CAV1 expression,"MCF7, 1 nM E2 ± 1 μM compound",5.56 FPKM
same,CCN5 expression,"MCF7, 1 nM E2 ± 1 μM compound",29.67 FPKM
same,CCNA2 expression,"MCF7, 1 nM E2 ± 1 μM compound",17.16 FPKM
same,CCNE2 expression,"MCF7, 1 nM E2 ± 1 μM compound",7.22 FPKM
same,CD99-2 expression,"MCF7, 1 nM E2 ± 1 μM compound",0.97 FPKM
same,CDC6 expression,"MCF7, 1 nM E2 ± 1 μM compound",6.08 FPKM
same,CDC25A expression,"MCF7, 1 nM E2 ± 1 μM compound",2.63 FPKM
same,CDC45 expression,"MCF7, 1 nM E2 ± 1 μM compound",5.79 FPKM
same,CDCA3 expression,"MCF7, 1 nM E2 ± 1 μM compound",6.21 FPKM
same,CDCA4 expression,"MCF7, 1 nM E2 ± 1 μM compound",15.28 FPKM
same,CDCA5 expression,"MCF7, 1 nM E2 ± 1 μM compound",13.04 FPKM
same,CDCA7 expression,"MCF7, 1 nM E2 ± 1 μM compound",2.77 FPKM
same,CDH26 expression,"MCF7, 1 nM E2 ± 1 μM compound",0.69 FPKM
same,CDK1 expression,"MCF7, 1 nM E2 ± 1 μM compound",15.34 FPKM
same,CDT1 expression,"MCF7, 1 nM E2 ± 1 μM compound",21.06 FPKM
same,CENPI expression,"MCF7, 1 nM E2 ± 1 μM compound",3.21 FPKM
same,CENPU expression,"MCF7, 1 nM E2 ± 1 μM compound",5.41 FPKM
same,CHAF1B expression,"MCF7, 1 nM E2 ± 1 μM compound",2.31 FPKM
same,CHEK1 expression,"MCF7, 1 nM E2 ± 1 μM compound",2.63 FPKM
same,CKS1B expression,"MCF7, 1 nM E2 ± 1 μM compound",49.15 FPKM
same,CLSPN expression,"MCF7, 1 nM E2 ± 1 μM compound",1.96 FPKM
same,COL12A1 expression,"MCF7, 1 nM E2 ± 1 μM compound",3.75 FPKM
same,CXCL12 expression,"MCF7, 1 nM E2 ± 1 μM compound",3.86 FPKM
same,DDIAS expression,"MCF7, 1 nM E2 ± 1 μM compound",4.48 FPKM
same,DHRSX-2 expression,"MCF7, 1 nM E2 ± 1 μM compound",1.54 FPKM
same,DKK1 expression,"MCF7, 1 nM E2 ± 1 μM compound",41.67 FPKM
same,DNA2 expression,"MCF7, 1 nM E2 ± 1 μM compound",3.39 FPKM
same,DPYSL5 expression,"MCF7, 1 nM E2 ± 1 μM compound",0.63 FPKM
same,DSCC1 expression,"MCF7, 1 nM E2 ± 1 μM compound",4.49 FPKM
same,DTL expression,"MCF7, 1 nM E2 ± 1 μM compound",2.21 FPKM
same,E2F1 expression,"MCF7, 1 nM E2 ± 1 μM compound",8.56 FPKM
same,E2F2 expression,"MCF7, 1 nM E2 ± 1 μM compound",1.96 FPKM
same,E2F7 expression,"MCF7, 1 nM E2 ± 1 μM compound",3.12 FPKM
same,E2F8 expression,"MCF7, 1 nM E2 ± 1 μM compound",4.23 FPKM
same,ELOVL2 expression,"MCF7, 1 nM E2 ± 1 μM compound",7.72 FPKM
same,EME1 expression,"MCF7, 1 nM E2 ± 1 μM compound",4.92 FPKM
same,ERCC6L expression,"MCF7, 1 nM E2 ± 1 μM compound",1.82 FPKM
same,ESCO2 expression,"MCF7, 1 nM E2 ± 1 μM compound",2.98 FPKM
same,ESPL1 expression,"MCF7, 1 nM E2 ± 1 μM compound",7.94 FPKM
same,EXO1 expression,"MCF7, 1 nM E2 ± 1 μM compound",3.27 FPKM
same,FAM20A expression,"MCF7, 1 nM E2 ± 1 μM compound",2.46 FPKM
same,FAM111B expression,"MCF7, 1 nM E2 ± 1 μM compound",4.32 FPKM
same,FANCA expression,"MCF7, 1 nM E2 ± 1 μM compound",10.70 FPKM
same,FANCD2 expression,"MCF7, 1 nM E2 ± 1 μM compound",6.23 FPKM
same,FANCI expression,"MCF7, 1 nM E2 ± 1 μM compound",20.35 FPKM
same,FEN1 expression,"MCF7, 1 nM E2 ± 1 μM compound",31.76 FPKM
same,FIGNL1 expression,"MCF7, 1 nM E2 ± 1 μM compound",2.46 FPKM
same,FKBP4 expression,"MCF7, 1 nM E2 ± 1 μM compound",79.90 FPKM
same,GATA4 expression,"MCF7, 1 nM E2 ± 1 μM compound",0.08 FPKM
same,GFRA1 expression,"MCF7, 1 nM E2 ± 1 μM compound",84.37 FPKM
same,GINS1 expression,"MCF7, 1 nM E2 ± 1 μM compound",11.19 FPKM
same,GINS2 expression,"MCF7, 1 nM E2 ± 1 μM compound",12.84 FPKM
same,GJA1 expression,"MCF7, 1 nM E2 ± 1 μM compound",0.31 FPKM
same,GLA expression,"MCF7, 1 nM E2 ± 1 μM compound",41.63 FPKM
same,GP1BB expression,"MCF7, 1 nM E2 ± 1 μM compound",0.99 FPKM
same,GPR68 expression,"MCF7, 1 nM E2 ± 1 μM compound",0.38 FPKM
same,GPRIN1 expression,"MCF7, 1 nM E2 ± 1 μM compound",4.22 FPKM
same,GREB1 expression,"MCF7, 1 nM E2 ± 1 μM compound",4.76 FPKM
same,H2AX expression,"MCF7, 1 nM E2 ± 1 μM compound",94.16 FPKM
same,HBB expression,"MCF7, 1 nM E2 ± 1 μM compound",2.54 FPKM
same,HELLS expression,"MCF7, 1 nM E2 ± 1 μM compound",3.37 FPKM
same,HEY2 expression,"MCF7, 1 nM E2 ± 1 μM compound",1.93 FPKM
same,HMGB2 expression,"MCF7, 1 nM E2 ± 1 μM compound",125.20 FPKM
same,IGFBP4 expression,"MCF7, 1 nM E2 ± 1 μM compound",56.87 FPKM
same,IGSF1 expression,"MCF7, 1 nM E2 ± 1 μM compound",3.37 FPKM
same,ITGA2B expression,"MCF7, 1 nM E2 ± 1 μM compound",0.44 FPKM
same,KIF11 expression,"MCF7, 1 nM E2 ± 1 μM compound",13.08 FPKM
